In patent US20250230193A1, “CYCLIC COMPOUND HAVING SELECTIVE KRAS INHIBITORY EFFECT ON HRAS AND NRAS” (CHUGAI SEIYAKU KABUSHIKI KAISHA, priority 2022, published 2025):
Where a SMILES comes first, the peptide text is derived from it. Bridges are numbered along the chain shown (N, C = ends). [ ]: non-standard residue; d: D form. The star is where a group is joined. hPhe(3-Cl-4-CF3) = N[C@@H](CCc1ccc(C(F)(F)F)c(Cl)c1)C(=O)O; NPrPhe(4-CF3) = CCCN[C@@H](Cc1ccc(C(F)(F)F)cc1)C(=O)O; Abu(4,4,4-F3) = N[C@@H](CC(F)(F)F)C(=O)O; NMeGly(cPent) = CN[C@H](C(=O)O)C1CCCC1; NMeD = CN[C@@H](CC(=O)O)C(=O)O; NMeL = CN[C@@H](CC(C)C)C(=O)O; Morpholide = C1CN(*)CCO1; Ac5c = NC1(C(=O)O)CCCC1; Aze = O=C(O)[C@@H]1CCN1; Ac4c = NC1(C(=O)O)CCC1; NEtG = CCNCC(=O)O; Sar = CNCC(=O)O

Key:
[1] = biological target: GDP-bound HRAS wild-type protein (Homo sapiens, UniProt P01112); assay: Binding to HRAS by surface plasmon resonance (SPR), Single Cycle Kinetics
Sequence of GDP-bound HRAS wild-type protein (P01112 whole entry): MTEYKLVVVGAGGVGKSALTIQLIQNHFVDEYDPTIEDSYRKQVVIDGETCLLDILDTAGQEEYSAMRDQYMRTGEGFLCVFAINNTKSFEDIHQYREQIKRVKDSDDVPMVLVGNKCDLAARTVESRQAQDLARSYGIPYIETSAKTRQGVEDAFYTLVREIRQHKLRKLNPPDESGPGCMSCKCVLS

[2] = biological target: GDP-bound NRAS wild-type protein (Homo sapiens, UniProt P01111); assay: Binding to NRAS by surface plasmon resonance (SPR), Single Cycle Kinetics
Sequence of GDP-bound NRAS wild-type protein (P01111 whole entry): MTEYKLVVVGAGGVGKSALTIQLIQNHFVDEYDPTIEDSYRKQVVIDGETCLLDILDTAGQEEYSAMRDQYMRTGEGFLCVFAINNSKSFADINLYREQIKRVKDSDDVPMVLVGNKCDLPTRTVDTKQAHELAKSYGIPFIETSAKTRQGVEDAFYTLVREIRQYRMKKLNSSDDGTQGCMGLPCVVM

[3] = KD ratio, GDP-bound HRAS wild-type vs GDP-bound KRAS wild-type, SPR
[4] = KD ratio, GDP-bound NRAS wild-type vs GDP-bound KRAS wild-type, SPR

## CCO[C@@H]1C[C@H]2C(=O)NC3(CC(C)(C)C3)C(=O)N(C)[C@@H](C(CC)CC)C(=O)N(C)[C@H](C(=O)N(C)C)CC(=O)N(C)[C@H]3CCC/C=C/c4ccc(cc4)C[C@@H](C(=O)N(C)CC(=O)N[C@@H](CCc4ccc(Cl)c(Cl)c4)C(=O)N2C1)N1CC/C=C\C[C@@H](C1=O)N(C)C(=O)CN(C)C(=O)[C@H]([C@@H](C)CC)NC3=O [PP2580]
[1]; class symbols
  HRAS/KRAS (ratio of KD value with respect to GDP-bound HRAS wild-type protein to KD value with respect to KRAS): A (a compound having 10 or more and less than 20 is denoted as A)
[2]; class symbols
  NRAS/KRAS (ratio of KD value with respect to GDP-bound NRAS wild-type protein to KD value with respect to KRAS): AA (a compound having 20 or more is denoted as AA)

## CCCCO[C@H]1CCN2C(=O)[C@H](CCc3cc(F)c(C(F)(F)F)c(F)c3)NC(=O)CN(C)C(=O)[C@H](Cc3ccc(C(F)(F)F)cc3)N3CCCC[C@@H](C3=O)N(C)C(=O)CN(C)C(=O)[C@H]([C@@H](C)CC)NC(=O)[C@H](CC(C)C)N(C)C(=O)C[C@@H](C(=O)N3CCOCC3)N(C)C(=O)[C@H](C3CCCC3)N(C)C(=O)C3(CCC3)NC(=O)[C@H]12 [PP1071]
[1]; [3]
  HRAS/KRAS (ratio of KD value with respect to HRAS to KD value with respect to KRAS): B (a compound having 3 or more and less than 10 is denoted as B)
[2]; [4]
  NRAS/KRAS (ratio of KD value with respect to NRAS to KD value with respect to KRAS): B (a compound having 3 or more and less than 10 is denoted as B)

## CCCN1C(=O)CN(C)C(=O)CN(CC)C(=O)[C@H](CC(F)(F)F)NC(=O)[C@H](CC(C)C)N(C)C(=O)C[C@@H](C(=O)N2CCOCC2)N(C)C(=O)[C@H](C2CCCC2)N(C)C(=O)C2(CCCC2)NC(=O)[C@@H]2CCCN2C(=O)[C@H](CCc2ccc(C(F)(F)F)c(Cl)c2)NC(=O)CN(C)C(=O)[C@@H]1Cc1ccc(C(F)(F)F)cc1 [PP0291] ([NMeL][Abu(4,4,4-F3)][NEtG][Sar][NPrPhe(4-CF3)][Sar][hPhe(3-Cl-4-CF3)]P[Ac5c][NMeGly(cPent)][NMeD]-Morpholide; lactam N-11)
[1]; SPR
  HRAS/KRAS (ratio of KD for GDP-bound HRAS wild-type to KD for KRAS): B (a compound having 3 or more and less than 10 is denoted as B)
[2]; SPR
  NRAS/KRAS (ratio of KD for GDP-bound NRAS wild-type to KD for KRAS): B (a compound having 3 or more and less than 10 is denoted as B)

## CCO[C@@H]1C[C@H]2C(=O)NC3(CCC3)C(=O)N(C)[C@@H](C3CCCC3)C(=O)N(C)[C@H](C(=O)N(C)C)CC(=O)N(C)[C@@H](Cc3cccnc3)C(=O)N[C@@H]([C@@H](C)CC)C(=O)N(C)CC(=O)N(C)[C@H]3CCCCN(C3=O)[C@@H](Cc3ccc(C(F)(F)F)cc3)C(=O)N(C)CC(=O)N[C@@H](CCc3cc(F)c(C(F)(F)F)c(F)c3)C(=O)N2C1 [PP0703]
[1]; SPR
  HRAS/KRAS (ratio of KD value with respect to GDP-bound HRAS wild-type protein to KD value with respect to KRAS): B (a compound having 3 or more and less than 10 is denoted as B)
[2]; SPR
  NRAS/KRAS (ratio of KD value with respect to GDP-bound NRAS wild-type protein to KD value with respect to KRAS): C (A compound having a KD ratio of 0.1 or more and less than 3 is denoted as C)

## CCOC[C@H]1C(=O)N[C@@H]([C@@H](C)CC)C(=O)N(C)CC(=O)N(C)[C@H]2C/C=C\CCN(C2=O)[C@@H](Cc2ccc(C)cc2)C(=O)N(C)CC(=O)N[C@@H](CCc2cc(F)c(C(F)(F)F)c(F)c2)C(=O)N2C[C@H](OCC)C[C@H]2C(=O)NC2(CC(C)(C)C2)C(=O)N(C)[C@@H](C2CCCC2)C(=O)N(C)[C@H](C(=O)N(C)CC)CC(=O)N1C [PP2404]
[1]; SPR, GDP-bound HRAS wild-type vs GDP-bound KRAS wild-type
  HRAS/KRAS (ratio of KD value with respect to HRAS to KD value with respect to KRAS): A (a compound having 10 or more and less than 20 is denoted as A)
[2]; SPR, GDP-bound NRAS wild-type vs GDP-bound KRAS wild-type
  NRAS/KRAS (ratio of KD value with respect to NRAS to KD value with respect to KRAS): A (a compound having 10 or more and less than 20 is denoted as A)

## CCCN1C(=O)[C@@H]2CCN2C(=O)CN(C)C(=O)[C@H]([C@@H](C)CC)NC(=O)[C@H](CC(C)C)N(C)C(=O)C[C@@H](C(=O)N2CCOCC2)N(C)C(=O)[C@H](C2CCCC2)N(C)C(=O)C2(CCC2)NC(=O)[C@@H]2CCCN2C(=O)[C@H](CCc2ccc(C(F)(F)F)c(Cl)c2)NC(=O)CN(C)C(=O)[C@@H]1Cc1ccc(C(F)(F)F)cc1 [PP0407] ([NMeL]I[Sar][Aze][NPrPhe(4-CF3)][Sar][hPhe(3-Cl-4-CF3)]P[Ac4c][NMeGly(cPent)][NMeD]-Morpholide; lactam N-11)
[1]; SPR
  HRAS/KRAS (ratio of KD for GDP-bound HRAS wild-type to KD for KRAS): B (a compound having 3 or more and less than 10 is denoted as B)
[2]; SPR
  NRAS/KRAS (ratio of KD for GDP-bound NRAS wild-type to KD for KRAS): C (A compound having a KD ratio of 0.1 or more and less than 3 is denoted as C)

## CCO[C@@H]1C[C@H]2C(=O)NC3(CC(C)(C)C3)C(=O)N(C)[C@@H](C3CCCC3)C(=O)N(C)[C@H](C(=O)N(C)CC)CC(=O)N(C)[C@@H](CC)C(=O)N[C@@H]([C@@H](C)CC)C(=O)N(C)CC(=O)N(C)[C@H]3C/C=C\CCN(C3=O)[C@@H](Cc3ccc(C(F)(F)F)cc3)C(=O)N(C)CC(=O)N[C@@H](CCc3ccc(C(F)(F)F)c(Cl)c3)C(=O)N2C1 [PP2823]
[1]; class symbols
  HRAS/KRAS (ratio of KD value with respect to GDP-bound HRAS wild-type protein to KD value with respect to KRAS): A (a compound having 10 or more and less than 20 is denoted as A)
[2]; class symbols
  NRAS/KRAS (ratio of KD value with respect to GDP-bound NRAS wild-type protein to KD value with respect to KRAS): A (a compound having 10 or more and less than 20 is denoted as A)

## CCO[C@@H]1C[C@H]2C(=O)NC3(CC(C)(C)C3)C(=O)N(C)[C@@H](C3CCCC3)C(=O)N(C)[C@H](C(=O)N(C)CC)CC(=O)N(C)[C@@H](CC(F)F)C(=O)N[C@@H]([C@@H](C)CC)C(=O)N(C)CC(=O)N(C)[C@H]3C/C=C\CCN(C3=O)[C@@H](Cc3ccc(C(F)(F)F)cc3)C(=O)N(C)CC(=O)N[C@@H](CCc3cc(F)c(C(F)(F)F)c(F)c3)C(=O)N2C1 [PP1643]
[1]; [3]
  HRAS/KRAS (ratio of KD value for HRAS to KD value for KRAS): A (a compound having 10 or more and less than 20 is denoted as A)
[2]; [4]
  NRAS/KRAS (ratio of KD value for NRAS to KD value for KRAS): A (a compound having 10 or more and less than 20 is denoted as A)
